These results are taken from patent US8618074B2, “GPCR enhanced neuroprotection to treat brain injury” (Board of Regents of the University of Texas System, priority 2007, dated 2013).

In one assay the test system is Mouse cortical neurons. Description: Neuronal survival in transwell co-culture with astrocytes under t-buOOH oxidative stress (Hoechst/calcein). The class given is cell-based. Particulars: co-cultures; 10 min pre-treatment 2-MeSADP 2 μM or UTP 50 μM; 4.5 hours of t-buOOH. Here is the method: Primary cultures of astrocytes were prepared as previously published (Lin et al., 2005). C57BL/6 male mice were purchased from the National Institute of Aging and maintained in standard accredited housing conditions at the University of Texas Health Science Center Animal Facility. Animal protocols were approved by our Institutional Animal Care Use Committee. Astrocytes were cultured in DMEM F-12 media (Invitrogen, # 11039-021) supplemented with 2 mM glutamine, nonessential amino acids, 10% fetal calf serum, 100 U/ml penicillin/streptomycin (Cambrex BioScience Walkersville, #17-602E) and 1% fungizone (Invitrogen, #15290-018) at 37° C. in an atmosphere containing 5% CO2. The culture medium was changed every 3-5 days. Confluent cells were gently removed by a trypsin EDTA solution and re-plated on 35 mm glass bottom chambers (Bioptechs #04200415C) prior to imaging experiments 3-4 days later. Cells were maintained in plastic culture flasks until the final re-seeding of cells onto a glass bottom chamber and were passed up to 3 times for astrocyte only experiments. For co-culture experiments with neurons, primary astrocytes were plated directly onto corning transwell-clear permeable supports, which physically separates the two cell-types by ˜1 mm (# 07-200-170, Fisher scientific). Astrocytes were cultured in transwells until they were ˜70% confluent. Mouse cortical neurons (Cambrex Bio Science Walkersville Inc., # M-CX-300) were then cultured onto 6 well mat-tek glass bottom plates and maintained in Neurobasal Medium (Invitrogen, # 21103-049), 2 mM L-Glutamine (Cambrex BioScience Walkersville, #17-605E), 100 U/ml penicillin/streptomycin (Cambrex BioScience Walkersville, #17-602E) and B-27 with (Invitrogen, #17504-044) and without antioxidants (Invitrogen, #10889-038), which controls glia contamination to less than 0.5%. The transwell supports with cultured astrocytes were placed in the neuron seeded glass bottom chambers for four days before imaging and both cell types were then maintained in neuronal media. For neuron only experiments, the astrocytes on the transwell supports were removed prior to treatments and imaging.
Sensitivity of neurons to oxidative stress was assessed by treating cultures with 100 μM tert-butyl hydrogen peroxide (t-BuOOH, Sigma, #B-2633) for 3 hours. Neurons were then stained with Hoechst 33342 (10 μg/ml, Molecular Probes, #H-3570) to label all cell nuclei and calcein AM (2 μM, #C3100, Molecular Probes, #C3100). […] Calcein fluorescence is only observed in live cells that have maintained their plasma membrane integrity. Images were acquired on an inverted Nikon TE300 microscope with a Hamamatsu ORCAER camera and Open lab software (Improvision).
To determine whether P2Y-R enhanced mitochondrial metabolism in astrocytes affected neuronal resistance to oxidative stress, we prepared co-cultures of neurons and astrocytes using corning transwell-clear permeable supports, which physically separates the two cell-types by ˜1 mm (# 07-200-170, Fisher scientific). Primary cultures of astrocytes were directly prepared in transwell supports until they were ˜70% confluent. Mouse cortical neurons were then cultured onto glass bottom mattek plates and maintained in B-27/Neurobasal Medium to control glia contamination to less than 0.5% (Invitrogen). After four days, co-cultures were treated with t-buOOH (100 μM) for 4 hours with and without pre-stimulation of ATP (2 μM, 10 minutes). Cells were then stained with the DNA intercalating dye Hoechst 33342 (10 μg/ml, Molecular Probes, #H-3570) and calcein AM (2 μM, Molecular Probes, #C3100). […] We then tested the neuroprotective affects of isoform specific purinergic ligands 2-MeSADP(P2Y1-R) and UTP(P2Y2-R). FIG. 6A depicts histogram plots of the percentage of neurons alive when cocultured with young or old astrocytes. FIG. 6B depicts histogram plots of the percentage of neurons alive pretreated with either 2-MeSADP (2 μM) or UTP (50 μM) for 10 min. […]

Assay [1] has as its system astrocytes. Description: Astrocyte survival under t-buOOH oxidative stress in the absence of neurons. Format: cell-based, mouse. Here is the method:
To determine whether P2Y-R enhanced mitochondrial metabolism in astrocytes affected neuronal resistance to oxidative stress, we prepared co-cultures of neurons and astrocytes using corning transwell-clear permeable supports, which physically separates the two cell-types by ˜1 mm (# 07-200-170, Fisher scientific). Primary cultures of astrocytes were directly prepared in transwell supports until they were ˜70% confluent. Mouse cortical neurons were then cultured onto glass bottom mattek plates and maintained in B-27/Neurobasal Medium to control glia contamination to less than 0.5% (Invitrogen). After four days, co-cultures were treated with t-buOOH (100 μM) for 4 hours with and without pre-stimulation of ATP (2 μM, 10 minutes). Cells were then stained with the DNA intercalating dye Hoechst 33342 (10 μg/ml, Molecular Probes, #H-3570) and calcein AM (2 μM, Molecular Probes, #C3100). […] We then tested the neuroprotective affects of isoform specific purinergic ligands 2-MeSADP(P2Y1-R) and UTP(P2Y2-R). FIG. 6A depicts histogram plots of the percentage of neurons alive when cocultured with young or old astrocytes. FIG. 6B depicts histogram plots of the percentage of neurons alive pretreated with either 2-MeSADP (2 μM) or UTP (50 μM) for 10 min. A ten-minute pre-treatment of astrocytes with either 2-MeSADP (2 μM), or UTP (50 μM) was equally protective against oxidative stress induced cell death. The % neurons alive after 4.5 hours of t-buOOH treatment was 51±4% (n=1664 neurons, pooled from 4 experiments) for untreated controls, 70±2% (n=2541 neurons, pooled from 4 experiments) for 2-MeSADP and 71±3% (n=1189 neurons, pooled from 4 experiments) for UTP treated co-cultures. […] The % astrocytes alive after 4.5 hours of t-buOOH treatment, in the absence of neurons, was 60±4% (n=294 cells) for control, 77±4% (n=294) for 2-MeSADP and 79±3% (n=333) for UTP treated astrocytes.
It should be noted that stimulation of neuroprotective response in astrocytes is not restricted to signaling through P2Y receptors. For example we have shown that administration of the membrane permeable IP3 analog, IP3BM, is capable of protecting astrocytes from oxidative damage. Thus, it appears possible that any stimulus capable of evoking IP3-mediated calcium release in astrocytes is equally suitable for application in the present treatment methods. To test this possibility, astrocyte cultures subjected to oxidative stress were treated with either 2-MeSADP, or the metabotropic glutamate receptor agonist (1 S, 3 R)-1-aminocyclopentane-1,3-dicarboxylic acid (ACPD), or were left untreated.
To directly examine the role of IP3 gated Ca^2+ release in P2Y-R enhanced astrocyte protection, we used a membrane permeant butyryloxymethyl ester of IP3 (IP3-BM). Cultures of astrocytes were exposed to IP3-BM and Ca^2+ levels were assessed using 2-photon imaging of Fura 2. Ca^2+ increases in response to IP3-BM application were easily detected, but they occurred over a much slower time course than those initiated by ATP treatment. This was not unexpected because of the slow process of IP3-BM movement across the lipid bilayer as well as the time needed to cleave the ester and accumulate IP3 in the cell. Because of the slower time course, we pretreated astrocytes for 20 minutes prior to exposing them to the oxidant stress t-BuOOH. […] The protective effect of IP3-BM treatment was blocked by the IP3R inhibitor, XeC. […]

In assay [2] the test system is astrocytes. The assay can be described thus: Intracellular ATP determination (luciferin-luciferase). The class given is cell-based, mouse. How it is done:
Intracellular ATP was measured using a luciferin-luciferase kit (Invitrogen, #22066). Plated astrocytes were trypsinized and washed 3× with PBS buffer (GIBCO #14190). An aliquot of cells was set aside to measure the cell density with a hemocytometer. The cells were then suspended in a lysate buffer (4 mM EDTA and 100 mM Tris, pH 7.75) and immediately heated to 100° C. for 5 minutes to minimize enzymatic changes in ATP levels. The supernatant was collected after a 10,000 g centrifugation for 1 minute and used with the luciferin/luciferase kit according to the manufacturer's instructions. Luminescence was measured with a Synergy™ HT Multi-Detection Microplate Reader (BioTek). ATP levels were normalized by cell density.
Our next approach to investigate the role of mitochondrial metabolism was to directly measure ATP levels in cultures astrocytes using a luciferin-luciferase assay (Invitrogen). Astrocytes were cultured as described above, trypsinized and washed with buffer. The cells were then suspended in a lysate buffer and immediately heated to 100° C. (5 min) to minimize enzymatic changes in ATP levels. After centrifugation, the ATP dependent luminescence of supernatant was measured with a microplate reader (Biotek). FIG. 5C depicts histograms of the direct measurement of intracellular ATP levels relative to untreated cells (control), P2Y-R stimulated (MeADP), then the same measurements in the presence of oligomycin (oligo) or ruthenium 360 (Ru360). We estimated that the resting intracellular ATP concentration in cultured astrocytes was 0.31±0.14 μM ATP/10^4 cells (n=3). […] Finally, we tested whether ruthenium 360 (Ru360; Calbiochem), a polycation that inhibits the electrogenic mitochondrial Ca^2+ uniporter, affected mitochondrial ATP production.

For `O=c1ccn([C@@H]2O[C@H](COP(=O)(O)OP(=O)(O)OP(=O)(O)O)[C@@H](O)[C@H]2O)c(=O)[nH]1` [UTP, uridine 5′-triphosphate], the “% neurons alive” value in the assay with Mouse cortical neurons is recorded as 71±3%. In addition, the “% astrocytes alive” value in the assay on astrocytes [1] (absence of neurons, 4.5 hours of t-buOOH, 2-MeSADP or UTP) is 79±3%.

For `N[C@@]1(C(=O)O)CC[C@@H](C(=O)O)C1` [ACPD, (1 S, 3 R)-1-aminocyclopentane-1,3-dicarboxylic acid], in the assay on astrocytes [1] (10 minutes pretreatment, 4 hours of t-BuOOH, mean+SD), the “% of astrocytes alive” value is 66+9%. For the same molecule, the “astrocyte resistance to oxidative stress” value with astrocytes [1] (astrocyte cultures subjected to oxidative stress, versus untreated) is given as “enhanced”.

As for ruthenium 360 [Ru360], in the assay on astrocytes [2] (Ru360 1 μM 30 min + 2-MeSADP), the “effect on ability of 2-MeSADP to increase ATP levels” value was “completely blocked”. In addition, the “basal ATP levels, % of control values” with astrocytes [2] (Ru360 1 μM, 30 min) is listed as 60.5%±10.5 % of control.
